Test system: AEA cellular uptake (U937 cells)
Experiment: [3H]-AEA cellular uptake inhibition in U937 cells
Type: cell-based
Conditions: Homo sapiens, U-937, U937 cells, final 100 nM AEA with 0.5 nM [3H]-AEA, 15 min at 37° C.; read-out: AEA uptake IC50
Procedure: [^3H]-AEA Cellular Uptake
Screening for AEA cellular uptake inhibition was performed in a semi-automated procedure: Pipetting and washing steps were performed by a Biomek3000 laboratory workstation. First, required amounts of U937 cells were centrifuged at 100×g for 5 min and resuspended in RPMI (37° C.) to a final concentration of 2×10^6 cells/mL. Then, 250 μL of cell suspension (0.5×10^6 cells per sample) were transferred into AquaSil™ silanized glass vials (Chromacol 1.1-MTV) in 96-well format. After addition of 5 μL vehicle (DMSO) or compounds the cells were incubated at 37° C. for 15 min. As positive controls OMDM-2 and UCM707 were used at 10 μM in each run. The ETI-T compounds were measured at up to 7 concentrations in triplicates from 100 pM-100 μM. After pre-incubation, a mixture of 0.5 nM [ethanolamine-1-^3H]-AEA, (60 Ci/mmol) and 99.5 nM of cold AEA (final 100 nM) was added and samples were incubated at 37° C. for another 15 min. The reaction was stopped by rapid filtration over UniFilter-96 GF/C filters (PerkinElmer) pre-soaked with PBS 0.25% BSA. Cells were washed three times with 100 μL ice-cold PBS buffer containing 1% fatty acid free BSA. After drying, 45 μL MicroScint 20 scintillation cocktail (PerkinElmer, Waltham, Mass., US) was added to the wells and the plate was sealed. Radioactivity was measured by liquid scintillation counting on a PerkinElmer Wallac Trilux MicroBeta 1450 during 2 min. Non-specific binding of [^3H]AEA (100 nM) to the glass vials was never higher than 10%. IC50 values were calculated by GraphPad® by non-linear regression using the built-in log(inhibitor) vs. response-variable slope (four parameters) function.

Compound	IC50
Cc1ccc(/N=C2\S/C(=C\c3ccc4c(c3)OCCO4)C(=O)N2c2ccc(Cl)cc2)cc1 [24_A_L, (2Z,5Z)-2-(p-tolylimino)-3-(4-chlorophenyl)-5-((2,3-dihydrobenzo[b][1,4]dioxin-6-yl)methylene)thiazolidin-4-one]	616 nM
Cc1ccc(/N=C2\S/C(=C\c3ccc4c(c3)OCCO4)C(=O)N2c2ccccc2)cc1 [24_A_N, (2Z,5Z)-2-(p-tolylimino)-5-((2,3-dihydrobenzo[b][1,4]dioxin-6-yl)methylene)-3-phenylthiazolidin-4-one]	1510 nM
Cc1ccc(/N=C2\S/C(=C\c3ccc4c(c3)OCCO4)C(=O)N2CC(C)C)cc1 [24_A_X, (2Z,5Z)-2-(p-tolylimino)-5-((2,3-dihydrobenzo[b][1,4]dioxin-6-yl)methylene)-3-isobutylthiazolidin-4-one]	721 nM
Cc1ccc(N2C(=O)/C(=C/c3ccc4c(c3)OCCO4)S/C2=N\c2ccc(F)cc2)cc1 [24_B_A, (2Z,5Z)-2-(4-fluorophenylimino)-5-((2,3-dihydrobenzo[b][1,4]dioxin-6-yl)methylene)-3-p-tolylthiazolidin-4-one]	176 nM
O=C1/C(=C/c2ccc3c(c2)OCCO3)S/C(=N\c2ccc(F)cc2)N1c1ccc(Cl)cc1 [24_B_L, (2Z,5Z)-2-(4-fluorophenylimino)-3-(4-chlorophenyl)-5-((2,3-dihydrobenzo[b][1,4]dioxin-6-yl)methylene)thiazolidin-4-one]	663 nM
O=C1/C(=C/c2ccc3c(c2)OCCO3)S/C(=N\c2ccc(F)cc2)N1c1ccccc1 [24_B_N, (2Z,5Z)-2-(4-fluorophenylimino)-5-((2,3-dihydrobenzo[b][1,4]dioxin-6-yl)methylene)-3-phenylthiazolidin-4-one]	419 nM
O=C1/C(=C/c2ccc3c(c2)OCCO3)S/C(=N\CCCc2ccccc2)N1c1ccccc1 [24_K_N, (2Z,5Z)-2-(3-phenylpropylimino)-5-((2,3-dihydrobenzo[b][1,4]dioxin-7-yl)methylene)-3-phenylthiazolidin-4-one]	1620 nM
O=C1/C(=C/c2ccc3c(c2)OCCO3)S/C(=N\Cc2cccnc2)N1c1ccccc1 [24_S_N, (2Z,5Z)-2-((pyridin-3-yl)methylimino)-5-((2,3-dihydrobenzo[b][1,4]dioxin-7-yl)methylene)-3-phenylthiazolidin-4-one]	1430 nM
Cc1ccc(N2C(=O)/C(=C/c3ccc4[nH]cnc4c3)S/C2=N\c2ccc(F)cc2)cc1 [32_B_A, (2Z,5Z)-5-((1H-benzo[d]imidazol-5-yl)methylene)-2-(4-fluorophenylimino)-3-p-tolylthiazolidin-4-one]	632 nM
CC(C)CN1C(=O)/C(=C/c2ccc3ncsc3c2)S/C1=N\c1ccc(F)cc1 [32_B_X, (2Z,5Z)-2-(4-fluorophenylimino)-5-((benzo[d]thiazol-6-yl)methylene)-3-isobutylthiazolidin-4-one]	993 nM
O=C1/C(=C/c2ccc3[nH]ccc3c2)S/C(=N\c2ccccc2)N1c1ccccc1 [compound 03, (2Z,5Z)-5-((1H-indol-5-yl)methylene)-3-phenyl-2-(phenylimino)thiazolidin-4-one]	731 nM
COCc1cccc(/C=C2\S/C(=N\c3ccccc3)N(c3ccccc3)C2=O)c1 [compound 15, (2Z,5Z)-5-(3-(methoxymethyl)benzylidene)-3-phenyl-2-(phenylimino)thiazolidin-4-one]	1030 nM
O=C1/C(=C/c2ccc(CO)cc2)S/C(=N\c2ccccc2)N1c1ccccc1 [compound 22, (2Z,5Z)-5-(4-(hydroxymethyl)benzylidene)-3-phenyl-2-(phenylimino)thiazolidin-4-one]	729 nM
Cn1ncc2cc(/C=C3\S/C(=N\c4ccccc4)N(c4ccccc4)C3=O)ccc21 [compound 28, (2Z,5Z)-5-((1-methyl-1H-indazol-5-yl)methylene)-3-phenyl-2-(phenylimino)thiazolidin-4-one]	515 nM
COCc1ccc(/C=C2\S/C(=N\c3ccccc3)N(c3ccccc3)C2=O)cc1 [compound 34, (2Z,5Z)-5-(4-(methoxymethyl)benzylidene)-3-phenyl-2-(phenylimino)thiazolidin-4-one]	> 10000 nM

Same assay, conditions: Homo sapiens, U-937, U937 cells, final 100 nM AEA with 0.5 nM [3H]-AEA, 15 min at 37° C.; read-out: AEA uptake inhibition IC50

Compound	IC50
O=C1/C(=C/c2ccc3[nH]ccc3c2)S/C(=N\c2ccccc2)N1c1ccccc1 [drawing 108]	731 nM
O=C1/C(=C/c2ccc3[nH]cnc3c2)S/C(=N\c2ccccc2)N1c1ccccc1 [drawing 109]	194 nM
COCc1cccc(/C=C2\S/C(=N\c3ccccc3)N(c3ccccc3)C2=O)c1 [drawing 117]	1000 nM
O=C1/C(=C/c2ccc3c(c2)OCCO3)S/C(=N\c2ccccc2)N1c1ccccc1 [drawing 119]	817 nM
O=C1/C(=C/c2ccc(CO)cc2)S/C(=N\c2ccccc2)N1c1ccccc1 [drawing 121]	729 nM
Cn1ncc2cc(/C=C3\S/C(=N\c4ccccc4)N(c4ccccc4)C3=O)ccc21 [drawing 126]	515 nM
O=C1/C(=C/c2ccc3ncsc3c2)S/C(=N\c2ccccc2)N1c1ccccc1 [drawing 129]	291 nM
O=C1/C(=C/c2ccccc2)S/C(=N\Cc2ccccc2)N1c1ccccc1 [drawing 130]	180 nM
O=C1/C(=C/c2ccc3c(c2)OCCO3)S/C(=N\Cc2ccccc2)N1c1ccccc1 [drawing 133]	170 nM
COCc1cccc(/C=C2\S/C(=N\Cc3ccccc3)N(c3ccccc3)C2=O)c1 [drawing 139]	1690 nM
COc1ccc(/N=C2\S/C(=C\c3ccc(CO)cc3)C(=O)N2c2ccccc2)cc1 [drawing 140]	135 nM
Cc1ccc(/N=C2\S/C(=C\c3ccc(CO)cc3)C(=O)N2c2ccccc2)cc1 [drawing 141]	111 nM
O=C1/C(=C/c2ccc(CO)cc2)S/C(=N\Cc2ccccc2)N1c1ccccc1 [drawing 142]	257 nM
Cc1ccc(/N=C2\S/C(=C\c3ccc(CO)cc3)C(=O)N2c2ccccc2)nc1 [drawing 143]	1450 nM
Cc1ccc(/N=C2\S/C(=C\c3ccc4[nH]cnc4c3)C(=O)N2c2ccccc2)cc1 [drawing 144]	107 nM
Cc1ccc(/N=C2\S/C(=C\c3ccc4[nH]cnc4c3)C(=O)N2c2ccccc2)nc1 [drawing 146]	1590 nM
COc1ccc(/N=C2\S/C(=C\c3ccc4[nH]cnc4c3)C(=O)N2c2ccccc2)cc1 [drawing 147]	164 nM
COc1ccc(/N=C2\S/C(=C\c3ccc4[nH]ccc4c3)C(=O)N2c2ccccc2)cc1 [drawing 150]	1070 nM
O=C1/C(=C/c2ccc3[nH]ccc3c2)S/C(=N\c2ccccc2)N1Cc1ccco1 [drawing 153]	879 nM
CCCCN1C(=O)/C(=C/c2ccc3[nH]cnc3c2)S/C1=N\c1ccccc1 [drawing 154]	557 nM
O=C1/C(=C/c2ccc(CO)cc2)S/C(=N\c2ccccc2)N1Cc1ccccc1 [drawing 156]	657 nM
O=C1/C(=C/c2ccc(CO)cc2)S/C(=N\c2ccccc2)N1Cc1ccco1 [drawing 157]	1310 nM
CCCCN1C(=O)/C(=C/c2ccc(CO)cc2)S/C1=N\c1ccccc1 [drawing 158]	1090 nM

Same assay, conditions: U937 cells, final 100 nM AEA with 0.5 nM [3H]-AEA, 15 min at 37° C.; read-out: AEA uptake IC50

Compound	IC50
(2Z,5Z)-5-((1H-benzo[d]imidazol-5-yl)methylene)-3-butyl-2-(phenylimino)thiazolidin-4- [03_N_G]	677 nM
